Data reported in US9340819B2, “Method for detecting the presence of carbapenemase-producing bacteria in a sample” (priority 2011, dated 2016).
Converted amounts (≈) assume the structure as drawn.

Columns and labels:
E. coli = assay: MIC by Etest on Mueller-Hinton agar (Example 1); type: cell-based, Escherichia coli; details: for MIC: Escherichia coli
Protocol: Prior to performing the method of the invention, susceptibility testings were performed by determining Minimum Inhibitory Concentration (MIC) values by the Etest® (AB bioMérieux; Solna, Sweden) on Mueller-Hinton agar plates at 37° C. and results of susceptibility testing were recorded according to the Clinical and Laboratory Standards Institute (CLSI) guidelines as modified in June 2010 (18). The breakpoints for imipenem are S≦1 μg/ml (susceptibility) and R≧4 μg/ml (resistant). As for those for ertapenem, they are S≦0.25 μg/ml and R≧1 μg/ml (see Tables 1 and 2).

Salmonella spp. = assay: MIC of carbapenem by Etest (Example 2); type: cell-based; details: Salmonella spp. KPC-2, n=1
Protocol: (§1) All strains had previously been characterized for their β-lactamase content at the molecular level. Minimum inhibitory concentration of carbapenem were determined using the Etest® (AB bioMérieux, Solna, Sweden) and results were recorded according to US guidelines (CLSI), as updated in 2011.

E. sakazaki = assay: MIC of carbapenem by Etest (Example 2); type: cell-based; details: ESBL + decreased membrane permeability; E. sakazaki CTX-M-15, n=1
Protocol: as §1

K. ozonae = assay: MIC of carbapenem by Etest (Example 2); type: cell-based; details: K. ozonae KPC-3, n=1
Protocol: as §1

P. fluorescens = assay: Susceptibility testing by Etest on Mueller-Hinton agar (Example 3); type: cell-based; details: Pseudomonas fluorescens
Protocol: (§2) Susceptibility testing was performed using the Etest® (bioMérieux; La Balmes-les-Grottes, France) on Mueller-Hinton agar plates (Becton Dickinson, Le Pont de Chaix, France) at 37° C. and results were recorded according to US guidelines (CLSI), as updated in 2012. The breakpoints for imipenem, meropenem and doripenem are as follows; susceptibility (S)≦2, and resistance (R)≧8 μg/ml.

P. putida = assay: as above; type: cell-based; details: Pseudomonas putida
Protocol: as §2

P. stutzeri = assay: as above; type: cell-based; details: Stutzerimonas stutzeri
Protocol: as §2

[1] = E. coli Ec13 SYD (23), plasmid mediated cephalosporinase CMY-2
[2] = E. coli VMC (24), plasmid mediated cephalosporinase CMY-10
[3] = E. coli 271 AUS (12), NDM-1 + CTX-M-15 + TEM-1
[4] = E. coli 5649 GEN, NDM-1 + OXA-1 + CMY-30 + TEM-1
[5] = E. coli ALL, NDM-1 + OXA-1 + OXA-2 + CTX-M-15 + TEM-1
[6] = E. coli MAD (14), VIM-1 + CTX-M-3
[7] = E. coli RIC, NDM-1 + OXA-1 + OXA-10 + CMY-16

Structure (SMILES) | MICs (E. coli; [1]) [µg/mL] | MICs (E. coli; E. coli J53 (29), wild-type) [µg/mL] | MICs (E. coli; [2]) [µg/mL] | MIC (E. coli; [3]) [µg/mL] | MIC (E. coli; [4]) [µg/mL] | MIC (E. coli; E. coli (18), ESBL CTX-M-14) [µg/mL] | MIC (E. coli; E. coli (20), ESBL VEB-1) [µg/mL] | MIC (E. coli; [5]) [µg/mL] | MIC (E. coli; E. coli BOU, OXA-48 + CTX-M-15) [µg/mL] | MIC (E. coli; E. coli COL (2), KPC-2) [µg/mL] | MIC (E. coli; E. coli DIH, VIM-19) [µg/mL] | MIC (E. coli; E. coli DIN, KPC) [µg/mL] | MIC (E. coli; E. coli FOR, ESBL CTX-M-15) [µg/mL] | MIC (E. coli; E. coli HAN (7), OXA-48) [µg/mL] | MIC (E. coli; [6]) [µg/mL] | MIC (E. coli; E. coli MAD, IMP-1) [µg/mL] | MIC (E. coli; E. coli PSP, KPC-2) [µg/mL] | MIC (E. coli; [7]) [µg/mL] | MICs range (Salmonella spp.) [mg/L] | MICs range (E. sakazaki) [mg/L] | further results
C[C@@H](O)[C@H]1C(=O)N2C(C(=O)O)=C(S[C@@H]3CN[C@H](C(=O)Nc4cccc(C(=O)O)c4)C3)[C@H](C)[C@H]12 [ERT, ertapenem] | 0.06 | 0.06 | 0.06 | 8 | 32 | 0.06 (≈ 0.126 µM) | 0.06 (≈ 0.126 µM) | 8 | 1.5 | 0.5 (≈ 1.05 µM) | 2 (≈ 4.21 µM) | > 32 | 0.06 (≈ 0.126 µM) | 1.5 (≈ 3.15 µM) | 0.5 | 3 (≈ 6.31 µM) | 2 (≈ 4.21 µM) | 8 | 1 | 1.5 | MICs range (K. ozonae): >32 mg/L
C[C@@H](O)[C@H]1C(=O)N2C(C(=O)O)=C(SCCN=CN)C[C@H]12 [IMP, imipenem] | 0.06 | 0.06 | 0.06 | 6 | 6 | 0.06 (≈ 0.2 µM) | 0.06 (≈ 0.2 µM) | 4 | 1 | 4 (≈ 13.4 µM) | 1 (≈ 3.34 µM) | 16 (≈ 53.4 µM) | 0.06 (≈ 0.2 µM) | 0.5 (≈ 1.67 µM) | 1.5 | 0.5 (≈ 1.67 µM) | 1 (≈ 3.34 µM) | 4 | 4 | 0.25 | MIC (P. fluorescens; P. fluorescens COU, VIM-2): > 0.032 µg/mL; MIC (P. fluorescens; P. fluorescens, BIC-1): > 0.032 µg/mL; MIC (P. putida; CIP55, P. putida CIP 55-5, wild type, none): 0.0005 µg/mL (≈ 0.00167 µM); MIC (P. putida; P. putida 9335, VIM-2): > 0.032 µg/mL; MIC (P. putida; P. putida NTU 91/99, VIM-2): > 0.032 µg/mL; MIC (P. putida; P. putida NTU 92/99, IMP-1): 0.001 µg/mL (≈ 0.00334 µM); MIC (P. stutzeri; P. stutzeri 13, DIM-1): > 0.032 µg/mL; MIC (P. stutzeri; P. stutzeri P511503100, VIM-2): > 0.032 µg/mL; MIC (P. stutzeri; P. stutzeri PB207, IMP-1): 0.002 µg/mL (≈ 0.00668 µM); MICs range (K. ozonae): >32 mg/L
